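Each compound was tested at five concentrations against cells in 96-well plates for 48 hours. At the TGI there is no net growth.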
What was measured:
Assay in all cases: inhibition of tumour cell growth, NCI panel, 48 h
[1] = test system: SK-MEL-5 melanoma
[2] = test system: EKVX NSCLC
[3] = test system: KM12 colon
[4] = test system: NCI-H460 lung
[5] = test system: OVCAR-4 ovarian
[6] = test system: MDA-MB-435
[7] = test system: RXF 393 renal
[8] = test system: ACHN renal
[9] = test system: MDA-MB-231 breast
[10] = test system: CCRF-CEM leukemia
[11] = test system: OVCAR-8 ovarian
[12] = test system: NCI-H226 lung
[13] = test system: HL-60(TB) leukemia
[14] = test system: OVCAR-3 ovarian
[15] = test system: TK-10 renal
[16] = test system: SNB-19 CNS
[17] = test system: SF-539 CNS
[18] = test system: HT29 colon
[19] = test system: OVCAR-5 ovarian
[20] = test system: A549 NSCLC
[21] = test system: SN12C renal
[22] = test system: MALME-3M melanoma
[23] = test system: SR leukemia
[24] = test system: 786-0 renal
[25] = test system: HOP-92 NSCLC
[26] = test system: A498 renal
[27] = test system: UACC-257 melanoma
[28] = test system: SK-MEL-2 melanoma
[29] = test system: PC-3 prostate
[30] = test system: NCI-H23 lung
[31] = test system: UO-31 renal
[32] = test system: CAKI-1 renal
[33] = test system: COLO 205 colon
[34] = test system: IGROV1 ovarian
[35] = test system: MCF7 breast
[36] = test system: T-47D breast
[37] = test system: SF-268 CNS
[38] = test system: NCI-H522 lung
[39] = test system: SNB-75 CNS
[40] = test system: LOX IMVI melanoma
[41] = test system: SF-295 CNS
[42] = test system: HS 578T breast
[43] = test system: HCT-15 colon
[44] = test system: DU-145 prostate
[45] = test system: BT-549 breast
[46] = test system: NCI/ADR-RES ovarian
[47] = test system: SK-OV-3 ovarian
[48] = test system: MOLT-4 leukemia
[49] = test system: SW-620 colon
[50] = test system: K-562 leukemia
[51] = test system: SK-MEL-28 melanoma
[52] = test system: HCC-2998 colon
[53] = test system: M14 melanoma
[54] = test system: UACC-62 melanoma
[55] = test system: HCT-116 colon
[56] = test system: HOP-62 NSCLC
[57] = test system: RPMI-8226 leukemia
[58] = test system: MDA-N
[59] = test system: DMS 273 small cell lung
[60] = test system: DLD-1 colon
[61] = test system: DMS 114 small cell lung
[62] = test system: LXFL 529 NSCLC
[63] = test system: M19-MEL melanoma

O=c1c2ccccc2n2nnc3ccc(NCCCNCCNCCCNc4ccc5nnn6c7ccccc7c(=O)c4c56)c1c32
TGI [1]: > 50 µM
TGI [2]: 20.3 µM
TGI [3]: > 22.5 µM
TGI [4]: 15.8 µM
TGI [5]: 21 µM
TGI [6]: > 50 µM
TGI [7]: 22.6 µM
TGI [8]: > 18 µM
TGI [9]: 7.37 µM
TGI [10]: > 50 µM
TGI [11]: > 20.2 µM
TGI [12]: 0.99 µM
TGI [13]: 23.5 µM
TGI [14]: 16.8 µM
TGI [15]: 19 µM
TGI [16]: 35.3 µM
TGI [17]: 8.46 µM
TGI [18]: 1.52 µM
TGI [19]: 18.1 µM
TGI [20]: 20.8 µM
TGI [21]: 7.49 µM
TGI [22]: > 50 µM
TGI [23]: > 50 µM
TGI [24]: 21.3 µM
TGI [25]: > 50 µM
TGI [26]: > 37 µM
TGI [27]: > 50 µM
TGI [28]: > 50 µM
TGI [29]: 16.3 µM
TGI [30]: 15.3 µM
TGI [31]: 19.5 µM
TGI [32]: 12.8 µM
TGI [33]: > 50 µM
TGI [34]: 8.58 µM
TGI [35]: 6.92 µM
TGI [36]: > 50 µM
TGI [37]: > 26.6 µM
TGI [38]: 9.84 µM
TGI [39]: > 27.2 µM
TGI [40]: 24 µM
TGI [41]: > 27.5 µM
TGI [42]: 37.6 µM
TGI [43]: > 26.4 µM
TGI [44]: > 50 µM
TGI [45]: 18.9 µM
TGI [46]: > 25.5 µM
TGI [47]: > 41.2 µM
TGI [48]: > 21.2 µM
TGI [49]: > 22.6 µM
TGI [50]: > 50 µM
TGI [51]: > 39.3 µM
TGI [52]: 6.51 µM
TGI [53]: > 30 µM
TGI [54]: > 50 µM
TGI [55]: > 38.5 µM
TGI [56]: 12.3 µM
TGI [57]: > 12.4 µM
TGI [58]: > 50 µM

Oc1ccc2c(c1)CC[N+]1=C2CCC2CCCC21 (centres undefined)
TGI [1]: > 100 µM
TGI [2]: > 100 µM
TGI [4]: > 100 µM
TGI [5]: > 100 µM
TGI [7]: > 100 µM
TGI [8]: > 100 µM
TGI [11]: > 100 µM
TGI [59]: > 100 µM
TGI [12]: > 100 µM
TGI [14]: > 100 µM
TGI [15]: > 100 µM
TGI [16]: > 100 µM
TGI [17]: > 100 µM
TGI [18]: > 100 µM
TGI [19]: > 100 µM
TGI [20]: > 100 µM
TGI [21]: > 100 µM
TGI [24]: > 100 µM
TGI [25]: > 100 µM
TGI [60]: > 100 µM
TGI [28]: > 100 µM
TGI [30]: > 100 µM
TGI [61]: > 100 µM
TGI [31]: > 100 µM
TGI [32]: > 100 µM
TGI [33]: > 100 µM
TGI [34]: > 100 µM
TGI [37]: > 100 µM
TGI [39]: > 100 µM
TGI [40]: > 100 µM
TGI [41]: > 100 µM
TGI [43]: > 100 µM
TGI [62]: > 100 µM
TGI [47]: > 100 µM
TGI [49]: > 100 µM
TGI [63]: > 100 µM
TGI [51]: > 100 µM
TGI [52]: > 100 µM
TGI [53]: > 100 µM
TGI [54]: > 100 µM
TGI [55]: > 100 µM
